Reference: patent US12180187B2, “1-phenyl-5-azinylpyrazolyl-3-oxyalkyl acids and their use for controlling unwanted plant growth” (BAYER AKTIENGESELLSCHAFT, priority 2019, dated 2024)

Key:
ALOMY = assay: Pre-emergence action at 320 g/ha against ALOMY; assay type: in vivo, Alopecurus myosuroides; conditions: scored visually after about 3 weeks vs untreated controls (100% = plants have died)
Procedure, shortened: (§1)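 Sow seeds, cover with soil, spray soil surface (WP/EC, 0.5% additive, 600 l/ha water), hold in greenhouse ~3 wk, then rate % activity visually against untreated controls.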

AVEFA = assay: Pre-emergence action at 320 g/ha against AVEFA; assay type: in vivo; conditions: visual scoring after about 3 weeks vs untreated controls
Procedure, shortened: as §1

ECHGC = assay: Pre-emergence action at 320 g/ha against ECHGC; assay type: in vivo, Echinochloa crus-galli; conditions: visual scoring after about 3 weeks vs untreated controls
Procedure, shortened: as §1

LOLRI = assay: Pre-emergence action at 320 g/ha against LOLRI; assay type: in vivo, Lolium rigidum; conditions: visual scoring after about 3 weeks vs untreated controls
Procedure, shortened: as §1

SETVI = assay: Pre-emergence action at 320 g/ha against SETVI; assay type: in vivo, Setaria viridis; conditions: visual scoring after about 3 weeks vs untreated controls
Procedure, shortened: as §1

ABUTH = assay: Pre-emergence action at 320 g/ha against ABUTH; assay type: in vivo, Abutilon theophrasti; conditions: greenhouse, scored visually after about 3 weeks vs untreated controls, 100% = plants have died, 0% = like control plants
Excerpt: (§2) b) Seeds of monocotyledonous and dicotyledonous weed plants and crop plants are placed in plastic or organic planting pots and covered with soil. The compounds of the invention, formulated in the form of wettable powders (WP) or as emulsion concentrates (EC), are then applied onto the surface of the covering soil as aqueous suspension or emulsion with addition of 0.5% additive at a water application rate of 600 l/ha (converted). After the treatment, the pots are placed in a greenhouse and kept under good growth conditions for the trial plants. After about 3 weeks, the effect of the preparations is scored visually in comparison with untreated controls as percentages. For example, 100% activity=the plants have died, 0% activity=like control plants. Tables 13 to 26 below show the effects of selected compounds of the general formula (I) on various harmful plants and at an application rate corresponding to 320 g/ha, which were obtained by the experimental procedure mentioned above.

AMARE = assay: Pre-emergence action at 320 g/ha against AMARE; assay type: in vivo, Amaranthus retroflexus; conditions: visual scoring after about 3 weeks vs untreated controls
Procedure, shortened: as §1

MATIN = assay: Pre-emergence action at 320 g/ha against MATIN; assay type: in vivo, Tripleurospermum inodorum (Matricaria inodora); conditions: visual scoring after about 3 weeks vs untreated controls
Procedure, shortened: as §1

PHBPU = assay: Pre-emergence action at 320 g/ha against PHBPU; assay type: in vivo; conditions: visual scoring after about 3 weeks vs untreated controls
Excerpt: as §2

POLCO = assay: Pre-emergence action at 320 g/ha against POLCO; assay type: in vivo, Fallopia convolvulus (Polygonum convolvulus); conditions: visual scoring after about 3 weeks vs untreated controls
Procedure, shortened: as §1

VERPE = assay: Pre-emergence action at 320 g/ha against VERPE; assay type: in vivo, Veronica persica; conditions: visual scoring after about 3 weeks vs untreated controls
Procedure, shortened: as §1

VIOTR = assay: Pre-emergence action at 320 g/ha against VIOTR; assay type: in vivo, Viola tricolor; conditions: dosage 320 g/ha
Procedure, shortened: as §1

| Compound | Pre-emergence action at 320 g/ha against ALOMY in % (ALOMY) [%] | Pre-emergence action against AVEFA in % (AVEFA) [%] | Pre-emergence action against ECHGC in % (ECHGC) [%] | Pre-emergence action against LOLRI in % (LOLRI) [%] | Pre-emergence action against SETVI in % (SETVI) [%] | Pre-emergence action at 320 g/ha against ABUTH in % (ABUTH) [%] | Pre-emergence action against AMARE in % (AMARE) [%] | Pre-emergence action against MATIN in % (MATIN) [%] | Pre-emergence action against PHBPU in % (PHBPU) [%] | Pre-emergence action against POLCO in % (POLCO) [%] | Pre-emergence action against VERPE in % (VERPE) [%] | Pre-emergence action against VIOTR in % (VIOTR) [%] |
| --- | --- | --- | --- | --- | --- | --- | --- | --- | --- | --- | --- | --- |
| COC(=O)[C@@H](C)Oc1nn(-c2cc(F)ccc2F)c(-c2cncc(F)c2)c1I [VII-135] | 100 | 90 | 90 | 100 | 100 | 80 | 100 | 90 | 90 | 100 | 100 | 100 |
| CCOC(=O)[C@@H](C)Oc1nn(-c2cc(F)ccc2F)c(-c2cncc(F)c2)c1Br [VII-136] | 100 | 90 | 90 | 90 | 100 | 80 | 100 | 90 | 90 | 100 | 100 | 100 |
| C[C@@H](Oc1nn(-c2cc(F)ccc2F)c(-c2cncc(F)c2)c1Br)C(=O)O [VII-137] | 100 | 90 | 90 | 100 | 100 | 90 | 100 | 90 | – | 90 | 100 | 100 |
